The source of these data is US20110015119A1, “NOVEL SEMI-SYNTHETIC GLYCOPEPTIDES AS ANTIBACTERIAL AGENTS” (LEAD THERAPEUTICS, INC., priority 2009, published 2011).

≈ marks a conversion by molar mass, not a printed value. A value given as a limit tells only on which side of the number the result lay.

Holding throughout (assay type): cell-based
Test [1] concerns Staphylococcus aureus 757 (MRSA). As to the kind of experiment: MIC by broth microdilution, SA 757. The following applies: Staphylococcus aureus, MRSA, read-out: MIC SA 757. How it is done: (§1) Antibacterial activity in vitro is investigated by broth microdilution method in Meuller-Hinton broth as recommended by NCCLS. All strains tested are clinical isolates either sensitive or resistant to natural glycopeptides. MIC values were determined using the CLSI-recommended broth microdilution procedure (Clinical and Laboratory Standards Institute, Methods for Dilution Antimicrobial Susceptibility Tests for Bacteria That Grow Aerobically; Approved Standard-Seventh Edition.). Automated liquid handlers (Multidrop 384, Labsystems, Helsinki, Finland; Biomek 2000 and Multimek 96, Beckman Coulter, Fullerton Calif.) were used to conduct serial dilutions and liquid transfers. The MIC value for vancomycin is given for comparison. The abbreviations for organisms tested are as follow: SA 100—Staphylococcus aureus 100 (ATCC 29213); SA 757—Staphylococcus aureus 757 (MRSA); SA 2012—Staphylococcus aureus 2012 (VISA); SE 835—Staphylococcus epidermidis 835; SE 831—Staphylococcus epidermidis 831 (MRSE); EFc 101—Enterococcus faecalis 101 (ATCC 29212); EFc 848—Enterococcus faecalis 848 (VRE, Van A); EFcm 800—Enterococcus faecium 800; EFcm 752—Enterococcus faecium 752 (VRE, Van A); SPNE 1195—Streptococcus pneumoniae 1195 (ATCC 49619); SPY 712—Streptococcus pyogenes 712.

Test [2] concerns Streptococcus pyogenes 712. As to the kind of experiment: MIC by broth microdilution, SPY 712. Conditions: Streptococcus pyogenes, 712, read-out: MIC S PYO 712. The procedure: as §1
The subject of test [3] is Streptococcus pneumoniae 1195 (ATCC 49619). Description: MIC by broth microdilution, SPNE 1195. Conditions: Streptococcus pneumoniae, ATCC49619, read-out: MIC S PNE 1195. How it is done: as §1
In general terms: Broth dilution looks for growth in wells or tubes with falling amounts of substance.

The next test concerns Enterococcus faecium 800. Description: MIC by broth microdilution, EFcm 800. Conditions: Enterococcus faecium, 800, read-out: MIC E FCM 800. The procedure: as §1
In test [4] the test system is Staphylococcus epidermidis 831 (MRSE). As to the kind of experiment: MIC by broth microdilution, SE 831. Conditions: Staphylococcus epidermidis, MRSE, read-out: MIC SE 831. How it is done:
as §1

Test [5] has as its system Enterococcus faecalis 848 (VRE, Van A). As to the kind of experiment: MIC by broth microdilution, EFc 848. The following applies: Enterococcus faecalis, VRE, read-out: MIC E FC 848, Enterococcus faecalis 848 (VRE, Van A); class symbols. The procedure: as §1
Test [6] has as its system Enterococcus faecium 752 (VRE, Van A). Description: MIC by broth microdilution, EFcm 752. The following applies: Enterococcus faecium, VRE, read-out: MIC E FCM 752, Enterococcus faecium 752 (VRE, Van A); class symbols. How it is done: as §1
Test [7] concerns Enterococcus faecalis 101 (ATCC 29212). Description: MIC by broth microdilution, EFc 101. Conditions: Enterococcus faecalis, ATCC29212, read-out: MIC E FC 101, Enterococcus faecalis 101 (ATCC 29212); class symbols. The procedure:
as §1

Test [8] deals with Staphylococcus epidermidis 835. As to the kind of experiment: MIC by broth microdilution, SE 835. Conditions: Staphylococcus epidermidis, 835, read-out: MIC SE 835. How it is done:
as §1

Test [9] concerns Staphylococcus aureus 100 (ATCC 29213). As to the kind of experiment: MIC by broth microdilution, SA 100. The following applies: Staphylococcus aureus, ATCC29213, read-out: MIC SA 100. The procedure:
as §1

The subject of test [10] is Staphylococcus aureus 2012 (VISA). As to the kind of experiment: MIC by broth microdilution, SA 2012. The following applies: Staphylococcus aureus, VISA, read-out: MIC SA 2012, Staphylococcus aureus 2012 (VISA); class symbols. The procedure:
as §1

By MIC is commonly meant the lowest concentration found to suppress growth. As for `CCOCCOCCNC(=O)Oc1cc(O)c2c(c1)[C@@H](C(=O)O)NC(=O)[C@H]1NC(=O)[C@H](NC(=O)[C@@H]3NC(=O)[C@H](CC(N)=O)NC(=O)[C@H](NC(=O)[C@@H](CC(C)C)NC)[C@H](O)c4ccc(c(Cl)c4)Oc4cc3cc(c4O[C@@H]3O[C@H](CO)[C@@H](O)[C@H](O)[C@H]3O[C@H]3C[C@](C)(N)[C@H](O)[C@H](C)O3)Oc3ccc(cc3Cl)[C@H]1O)c1ccc(O)c-2c1` (atropisomer, axis not shown) [Compound 353], the MIC is 4 to 8 mg/L (≈ 2.49 to 4.97 µM) in [1]; 1 to 2 mg/L (≈ 0.622 to 1.24 µM) in [2]; 0.01 to 0.5 mg/L (≈ 0.00622 to 0.311 µM) in test [3]; 2 to 4 mg/L (≈ 1.24 to 2.49 µM) in the test with Enterococcus faecium 800; 4 to 8 mg/L (≈ 2.49 to 4.97 µM) in test [4]; more than 16 mg/L in [5]. The MIC was more than 16 mg/L in [6]; 4 to 8 mg/L (≈ 2.49 to 4.97 µM) in test [7]; 8 to 16 mg/L (≈ 4.97 to 9.95 µM) in test [8]; 4 to 8 mg/L (≈ 2.49 to 4.97 µM) in [9]; more than 16 mg/L in test [10].
Consider `CCNCCOc1ccc(CCNC(=O)Oc2cc(O)c3c(c2)[C@@H](C(=O)NC2C4CC5CC(C4)CC2C5)NC(=O)[C@H]2NC(=O)[C@H](NC(=O)[C@@H]4NC(=O)[C@H](CC(N)=O)NC(=O)[C@H](NC(=O)[C@@H](CC(C)C)NC)[C@H](O)c5ccc(c(Cl)c5)Oc5cc4cc(c5O[C@@H]4O[C@H](CO)[C@@H](O)[C@H](O)[C@H]4O[C@H]4C[C@](C)(N)[C@H](O)[C@H](C)O4)Oc4ccc(cc4Cl)[C@H]2O)c2ccc(O)c-3c2)cc1` (stereo partly drawn) [Compound 337], for which the minimal inhibitory concentration (MIC) in test [1] was 0.01 to 0.5 mg/L (≈ 0.0055 to 0.275 µM); in [2], 0.01 to 0.5 mg/L (≈ 0.0055 to 0.275 µM); in test [3] it was 0.01 to 0.5 mg/L (≈ 0.0055 to 0.275 µM); with Enterococcus faecium 800 it was 0.01 to 0.5 mg/L (≈ 0.0055 to 0.275 µM); in test [4], 0.01 to 0.5 mg/L (≈ 0.0055 to 0.275 µM); in test [5] it was 8 to 16 mg/L (≈ 4.4 to 8.81 µM). Besides, the minimal inhibitory concentration (MIC) in [6] lay in the range of 4 to 8 mg/L (≈ 2.2 to 4.4 µM); in test [7] it was 0.01 to 0.5 mg/L (≈ 0.0055 to 0.275 µM); in [8], 0.01 to 0.5 mg/L (≈ 0.0055 to 0.275 µM); in [9], 0.01 to 0.5 mg/L (≈ 0.0055 to 0.275 µM); in [10], 1 to 2 mg/L (≈ 0.55 to 1.1 µM).
With `CCCCCOc1ccc(S(=O)(=O)NCCCCCCNC(=O)Oc2cc(O)c3c(c2)[C@@H](C(=O)NC2C4CC5CC(C4)CC2C5)NC(=O)[C@H]2NC(=O)[C@H](NC(=O)[C@@H]4NC(=O)[C@H](CC(N)=O)NC(=O)[C@H](NC(=O)[C@@H](CC(C)C)NC)[C@H](O)c5ccc(c(Cl)c5)Oc5cc4cc(c5O[C@@H]4O[C@H](CO)[C@@H](O)[C@H](O)[C@H]4O[C@H]4C[C@](C)(N)[C@H](O)[C@H](C)O4)Oc4ccc(cc4Cl)[C@H]2O)c2ccc(O)c-3c2)cc1` (stereo partly drawn) [Compound 317], the minimal inhibitory concentration (MIC) fell in the range of 0.5 to 1 mg/L (≈ 0.256 to 0.513 µM) in test [1]; 0.01 to 0.5 mg/L (≈ 0.00513 to 0.256 µM) in [2]; 0.01 to 0.5 mg/L (≈ 0.00513 to 0.256 µM) in test [3]; 0.01 to 0.5 mg/L (≈ 0.00513 to 0.256 µM) in the test with Enterococcus faecium 800; 1 to 2 mg/L (≈ 0.513 to 1.03 µM) in [4]; 8 to 16 mg/L (≈ 4.1 to 8.2 µM) in [5]. Further, the MIC in [6] was in the range of 1 to 2 mg/L (≈ 0.513 to 1.03 µM); in test [7] it was 1 to 2 mg/L (≈ 0.513 to 1.03 µM); in test [8] it was 2 to 4 mg/L (≈ 1.03 to 2.05 µM); in test [9] it was 1 to 2 mg/L (≈ 0.513 to 1.03 µM); in [10] it was 8 to 16 mg/L (≈ 4.1 to 8.2 µM).
